Experimental data reported in paper PMC6008465 (British Journal of Cancer, 2018).
pIC50: −log10 of the molar value.

Tests used:
[1] = test system: patients with advanced solid tumours; assay: Phase 1 Part A (dose escalation): safety, DLT, MTD; format: in vivo, human; details: Part A
Description: The primary objectives of this phase 1 study were to evaluate the safety, tolerability, and MTD of once-weekly (Schedule I) and twice-weekly (Schedule II) dosing. Secondary objectives included evaluation of the PK profile of E6201. […] Toxicity was managed by dose interruption, reduction, and/or discontinuation. Only Cycle 1 adverse events (AEs) were evaluable as DLTs. Based on AEs reported at 480 mg/m^2 and 400 mg/m^2, the protocol was amended to include up to 6 additional toxicity-evaluable patients at 320 mg/m^2, to confirm this as the MTD. All ongoing patients could continue at 320 mg/m^2, regardless of initial starting dose.
(§1) Safety was assessed by monitoring AEs, serious AEs (SAEs), laboratory parameters, vital signs, 12-lead electrocardiograms (ECGs), Eastern Cooperative Oncology Group performance status, and symptom-directed physical and neurologic examination findings. AEs were graded by investigators based on the National Cancer Institute Common Terminology Criteria for Adverse Events, version 3.[16]

[2] = test system: patients with advanced solid tumours, including melanoma; assay: Phase 1 study overall (Parts A and B): safety; format: in vivo, human
Description: as §1

cyclin D1 = details: quoted in discussion, no reference given, cited from earlier work

With CCNc1cc(O)c2c(c1)/C=C/C[C@H](O)[C@H](O)C(=O)/C=C\[C@@H](C)[C@H](C)OC2=O [E6201, (3S,4R,5Z,8S,9S,11E)-14-(ethylamino)-8,9,16-trihydroxy-3,4-dimethyl-3,4,9,19-tetrahydro-1H-2-benzoxacyclotetradecine-1,7 (8H)-dione] the “Nausea TEAE incidence, All grades” value ([1]; 320 mg/m^2 (n=7)) was 5 (71.4) n (%), the “Nausea TEAE incidence, G≥3” value ([1]; 320 mg/m^2 (n=7)) was 1 (14.3) n (%) and the “Patients with a DLT (QTcF increase from baseline > 60 ms) and grade 2 CNS toxicities” value ([1]; 320 mg/m^2 (n=7)) was “One”. For the same molecule, the “Peripheral edema TEAE incidence, All grades” value ([1]; 320 mg/m^2 (n=7)) was 1 (14.3) n (%), the “Peripheral edema TEAE incidence, G≥3” value ([1]; 320 mg/m^2 (n=7)) was 1 (14.3) n (%) and the “Vomiting TEAE incidence, All grades” value ([1]; 320 mg/m^2 (n=7)) was 4 (57.1) n (%). The “Vomiting TEAE incidence, G≥3” value ([1]; 320 mg/m^2 (n=7)) was 0 n (%), the “Patients with grade 3 bradycardia (unrelated to E6201)” value ([1]; 320 mg/m^2 group) was “one” and the “Deaths (abnormal hepatic function, possibly related to E6201)” value ([1]; 320 mg/m^2 group, post-Cycle 1) was 1 patient. The “Patients with CNS toxicity (grade 1 dizziness) treated conservatively as a DLT” value ([1]; 400 mg/m^2) was 1 patient, the “Abdominal pain TEAE incidence, All grades” value ([1]; 400 mg/m^2 (n=1)) was 0 n (%) and the “Abdominal pain TEAE incidence, G≥3” value ([1]; 400 mg/m^2 (n=1)) was 0 n (%). The “Constipation TEAE incidence, All grades” value ([1]; 400 mg/m^2 (n=1)) was 0 n (%), the “Constipation TEAE incidence, G≥3” value ([1]; 400 mg/m^2 (n=1)) was 0 n (%) and the “Decreased appetite TEAE incidence, All grades” value ([1]; 400 mg/m^2 (n=1)) was 0 n (%). For the same molecule, the “Decreased appetite TEAE incidence, G≥3” value ([1]; 400 mg/m^2 (n=1)) was 0 n (%), the “Fatigue TEAE incidence, All grades” value ([1]; 400 mg/m^2 (n=1)) was 0 n (%) and the “Fatigue TEAE incidence, G≥3” value ([1]; 400 mg/m^2 (n=1)) was 0 n (%). The “Hypokalemia TEAE incidence, All grades” value ([1]; 400 mg/m^2 (n=1)) was 1 (100) n (%), the “Hypokalemia TEAE incidence, G≥3” value ([1]; 400 mg/m^2 (n=1)) was 1 (100) n (%) and the “Nausea TEAE incidence, All grades” value ([1]; 400 mg/m^2 (n=1)) was 0 n (%). For the same molecule, the “Nausea TEAE incidence, G≥3” value ([1]; 400 mg/m^2 (n=1)) was 0 n (%), the “Peripheral edema TEAE incidence, All grades” value ([1]; 400 mg/m^2 (n=1)) was 0 n (%) and the “Peripheral edema TEAE incidence, G≥3” value ([1]; 400 mg/m^2 (n=1)) was 0 n (%). For the same molecule, the “Vomiting TEAE incidence, All grades” value ([1]; 400 mg/m^2 (n=1)) was 0 n (%), the “Vomiting TEAE incidence, G≥3” value ([1]; 400 mg/m^2 (n=1)) was 0 n (%) and the “Abdominal pain TEAE incidence, All grades” value ([1]; 480 mg/m^2 (n=4)) was 1 (25.0) n (%). The “Abdominal pain TEAE incidence, G≥3” value ([1]; 480 mg/m^2 (n=4)) was 0 n (%), the “Constipation TEAE incidence, All grades” value ([1]; 480 mg/m^2 (n=4)) was 2 (50.0) n (%) and the “Constipation TEAE incidence, G≥3” value ([1]; 480 mg/m^2 (n=4)) was 0 n (%). For the same molecule, the “Decreased appetite TEAE incidence, All grades” value ([1]; 480 mg/m^2 (n=4)) was 1 (25.0) n (%), the “Decreased appetite TEAE incidence, G≥3” value ([1]; 480 mg/m^2 (n=4)) was 0 n (%) and the “Fatigue TEAE incidence, All grades” value ([1]; 480 mg/m^2 (n=4)) was 2 (50.0) n (%). The “Fatigue TEAE incidence, G≥3” value ([1]; 480 mg/m^2 (n=4)) was 0 n (%), the “Hypokalemia TEAE incidence, All grades” value ([1]; 480 mg/m^2 (n=4)) was 2 (50.0) n (%) and the “Hypokalemia TEAE incidence, G≥3” value ([1]; 480 mg/m^2 (n=4)) was 0 n (%). For the same molecule, the “Nausea TEAE incidence, All grades” value ([1]; 480 mg/m^2 (n=4)) was 1 (25.0) n (%), the “Nausea TEAE incidence, G≥3” value ([1]; 480 mg/m^2 (n=4)) was 0 n (%) and the “Peripheral edema TEAE incidence, All grades” value ([1]; 480 mg/m^2 (n=4)) was 0 n (%). The “Peripheral edema TEAE incidence, G≥3” value ([1]; 480 mg/m^2 (n=4)) was 0 n (%), the “Vomiting TEAE incidence, All grades” value ([1]; 480 mg/m^2 (n=4)) was 1 (25.0) n (%) and the “Vomiting TEAE incidence, G≥3” value ([1]; 480 mg/m^2 (n=4)) was 0 n (%). The “QTcF prolongation to >500 ms, patients” value ([1]; 480 mg/m^2, Cycle 2) was “one”, the “Patients with DLTs” value ([1]; 480 mg/m^2, QTcF > 500 ms, grade 4 confusion, QTcF increase > 60 ms) was 3 patients and the “Grade 3/4 ECG QT prolonged, patients” value ([1]; 2 patients) was 8.0%. The “Grade 3/4 abdominal pain, patients” value ([1]; 2 patients) was 8.0%, the “Grade 3/4 hyperbilirubinemia, patients” value ([1]; 2 patients) was 8.0% and the “Grade 3/4 syncope, patients” value ([1]; 2 patients) was 8.0%. The “Treatment-emergent SAEs other than death, patients” value ([1]; 8 patients) was 32.0%, the “Grade 3/4 TEAEs, patients” value ([1]; 11 patients) was 44.0% and the “QT prolongation reported as an AE (Grade 2/3, DLT, probably related), patients” value ([1]; 30-min infusion, three patients) was 12.0%. The “Patients with ≥1 TEAE assessed as treatment-related” value ([1]; Eleven patients) was 44.0%, the “Abdominal pain TEAE incidence, All grades” value ([1]; Total (N=25)) was 6 (24.0) n (%) and the “Abdominal pain TEAE incidence, G≥3” value ([1]; Total (N=25)) was 2 (8.0) n (%). The “Constipation TEAE incidence, All grades” value ([1]; Total (N=25)) was 7 (28.0) n (%), the “Constipation TEAE incidence, G≥3” value ([1]; Total (N=25)) was 0 n (%) and the “Decreased appetite TEAE incidence, All grades” value ([1]; Total (N=25)) was 5 (20.0) n (%). For the same molecule, the “Decreased appetite TEAE incidence, G≥3” value ([1]; Total (N=25)) was 1 (4.0) n (%), the “Fatigue TEAE incidence, All grades” value ([1]; Total (N=25)) was 7 (28.0) n (%) and the “Fatigue TEAE incidence, G≥3” value ([1]; Total (N=25)) was 1 (4.0) n (%). The “Hypokalemia TEAE incidence, All grades” value ([1]; Total (N=25)) was 7 (28.0) n (%), the “Hypokalemia TEAE incidence, G≥3” value ([1]; Total (N=25)) was 1 (4.0) n (%) and the “Nausea TEAE incidence, All grades” value ([1]; Total (N=25)) was 9 (36.0) n (%). For the same molecule, the “Nausea TEAE incidence, G≥3” value ([1]; Total (N=25)) was 1 (4.0) n (%), the “Peripheral edema TEAE incidence, All grades” value ([1]; Total (N=25)) was 4 (16.0) n (%) and the “Peripheral edema TEAE incidence, G≥3” value ([1]; Total (N=25)) was 1 (4.0) n (%). For the same molecule, the “Vomiting TEAE incidence, All grades” value ([1]; Total (N=25)) was 7 (28.0) n (%), the “Vomiting TEAE incidence, G≥3” value ([1]; Total (N=25)) was 0 n (%) and the “QTcF increase of 30–60 ms from baseline, patients” value ([1]; five patients) was 20.0%. The “QTcF prolongation to 450–500 ms, patients” value ([1]; five patients across dose groups) was 20.0%, the “QTcF increase of >60 ms from baseline, patients” value ([1]; two patients) was 8.0% and the “Maximum-tolerated dose (MTD)” value ([1]; 30-min IV infusion once-weekly for 3 weeks of a 28-day cycle) was 320 mg/m^2. For the same molecule, the “Patients who died during the study” value ([2]; Parts A and B) was “Four”, the AEs of cardiomyopathy ([2]; during the study) was “no reported AEs of cardiomyopathy” and the New skin cancers ([2]; during the study) was “No new skin cancers were reported”. For the same molecule, the “IC50 for inhibition of cyclin D1” value (cyclin D1) was 1.87 ng/mL and the pIC50 (cyclin D1; read-out: IC50 for inhibition of cyclin D1) was 8.32.
